In paper PMC10733197, “Utilization of Rosuvastatin and Endogenous Biomarkers in Evaluating the Impact of Ritlecitinib on BCRP, OATP1B1, and OAT3 Transporter Activity” (Pharmaceutical Research, 2023):
Read-outs that look alike come from different tables or passages of the source. Blank lines part the entries; values can stand above or below the molecule they belong to.

How the values were obtained:
[1] = system: OCT1; design: method as in PMID 36807251; settings: cited from earlier work
[2] = system: OATP1B1; experiment: Plasma CP-I as endogenous biomarker of OATP1B1 in clinical DDI studies; type: in vivo, human; design: AUC24 / Cmax: unit not given beside the values; settings: for AUC24 / Cmax: geometric mean (%CV)
Procedure: (§1) Blood and urine samples were collected at prespecified timepoints. Rosuvastatin plasma samples (~ 6 mL) were collected predose and at 0.5, 1, 2, 3, 4, 5, 6, 8, 10, 12, 16, 24, 36, 48, and 72 h postdose. CP-I and PDA plasma samples (~ 6 mL) were collected predose and at 0.5, 1, 2, 3, 4, 5, 6, 8, 10, 12, 16, and 24 h post rosuvastatin dosing. Rosuvastatin urine samples were collected at predose, 0–6 h, 6–12, 12–24, 24–48, and 48–72 h postdose. Each participant emptied their bladder just prior to dosing.
Quantification of CP-I was conducted by mass spectrometry according to King-Ahmad et al.. Plasma samples were spiked with stable label internal standard (^15N4-coproporphyrin I). CP-I was isolated through supported liquid extraction. The eluate was evaporated under a nitrogen stream at approximately 45 °C, and the remaining residue was reconstituted with 125 μL of water/acetonitrile/formic acid (750:250: 1, v/v/v). The final extract was analyzed via UPLC® with column switching and MS/MS detection using positive ion electrospray. A linear, 1/x^2 weighted, least-squares regression algorithm was used to quantitate sample concentrations.
(§2) The PK parameters for rosuvastatin, CP-I and PDA were calculated for each participant and each treatment using Pfizer’s internally validated electronic noncompartmental analysis software (eNCA) version 2.4.4. Samples below the lower limit of quantitation were set to zero for the PK analysis. Actual sample collection times were used for the PK analysis.
(§3) Natural log transformed area under the plasma concentration-time profile from time 0 extrapolated to infinity (AUCinf), maximum plasma concentration (Cmax), and apparent renal clearance (CLr) were analyzed using a mixed effect model with treatment as a fixed effect and participant as a random effect (SAS version 9.4; SAS Institute, Cary, NC, USA). Estimates of the adjusted mean differences (Test-Reference) and corresponding 90% CIs were obtained from the model. The adjusted mean difference and 90% CIs for the differences were exponentiated to provide estimates of the ratio of adjusted geometric means (Test/Reference) and 90% CIs for the ratios. Rosuvastatin alone was the reference treatment, while the rosuvastatin coadministered with ritlecitinib was the Test treatment.

[3] = system: OATP1B1; settings: plasma CP-I with coadministration of rifampicin vs rosuvastatin alone; cited from earlier work
[4] = biological target: T1, OAT3 (Homo sapiens, UniProt Q8TCC7); settings: estrone 3-sulfate 0.1 µM; HEK293; existing in vitro data; cited from earlier work
T1 construct: expressed in transfected cells; host or cells: HEK293
T1 sequence (Q8TCC7 1-542): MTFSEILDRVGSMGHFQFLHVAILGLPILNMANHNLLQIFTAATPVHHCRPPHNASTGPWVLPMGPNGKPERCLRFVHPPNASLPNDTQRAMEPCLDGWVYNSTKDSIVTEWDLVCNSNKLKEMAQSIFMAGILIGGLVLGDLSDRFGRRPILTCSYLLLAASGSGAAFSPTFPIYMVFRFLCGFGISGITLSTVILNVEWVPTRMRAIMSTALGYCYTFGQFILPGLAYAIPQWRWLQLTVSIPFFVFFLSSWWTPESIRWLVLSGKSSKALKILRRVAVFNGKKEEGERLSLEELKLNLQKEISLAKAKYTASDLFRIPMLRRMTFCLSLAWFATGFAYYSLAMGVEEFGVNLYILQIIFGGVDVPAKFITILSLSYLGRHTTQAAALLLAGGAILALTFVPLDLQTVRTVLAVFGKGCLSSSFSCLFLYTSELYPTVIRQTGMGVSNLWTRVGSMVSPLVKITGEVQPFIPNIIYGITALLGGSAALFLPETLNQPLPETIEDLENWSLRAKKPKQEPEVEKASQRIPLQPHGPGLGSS

[5] = cited from earlier work
[6] = system: OAT1/3; settings: cited from earlier work; for PDA AUC ratio Observed: ref 1 (Rodrigues AD 2023)
[7] = biological target: T2, OAT1 (Homo sapiens, UniProt Q4U2R8); settings: cited from earlier work
T2 sequence (Q4U2R8 1-563): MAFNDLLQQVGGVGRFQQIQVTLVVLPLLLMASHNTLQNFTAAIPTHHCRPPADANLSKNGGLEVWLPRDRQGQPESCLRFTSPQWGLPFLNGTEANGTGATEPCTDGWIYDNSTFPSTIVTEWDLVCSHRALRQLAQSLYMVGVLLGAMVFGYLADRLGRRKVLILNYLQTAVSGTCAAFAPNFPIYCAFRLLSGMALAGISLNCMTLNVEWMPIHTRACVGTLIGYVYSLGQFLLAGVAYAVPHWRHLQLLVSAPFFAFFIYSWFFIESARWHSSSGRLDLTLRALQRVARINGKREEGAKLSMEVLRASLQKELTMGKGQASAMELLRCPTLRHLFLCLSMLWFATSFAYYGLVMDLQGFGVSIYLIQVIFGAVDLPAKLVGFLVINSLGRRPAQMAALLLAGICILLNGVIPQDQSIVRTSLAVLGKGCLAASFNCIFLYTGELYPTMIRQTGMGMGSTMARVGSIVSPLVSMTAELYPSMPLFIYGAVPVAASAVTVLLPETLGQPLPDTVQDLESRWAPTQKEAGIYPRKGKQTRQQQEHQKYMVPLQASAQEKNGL

[8] = system: OAT1/3; experiment: Plasma PDA as endogenous biomarker of OAT1/3 in clinical DDI studies; type: in vivo, human; settings: for AUC24 / Cmax: geometric mean (%CV)
Procedure: as §1
Quantification of PDA was conducted by mass spectrometry according to Towner et al.. […] Mass spectrometry detection of the analytes were achieved using a SCIEX API QTrap 5500 mass spectrometry and a Turbo V electrospray ionization source in negative ion mode. Plasma samples were prepared by protein precipitation by spiking 50 μL of sample with 200 μL of 300 ng/mL 4-aminosalicylic acid internal standard. After vortexing/centrifugation, 200 μL of supernatant was transferred and 1 μL injections were analyzed. A 1/x^2 weighted linear regression was used to quantitate sample concentrations.
as §2, §3

[9] = clinical; settings: human, in vivo, 10 mg
Procedure: Blood and urine samples were collected at prespecified timepoints. […] Each participant emptied their bladder just prior to dosing. Plasma rosuvastatin was measured using a validated UPLC-MS/MS assay, in compliance with Pfizer standard operating procedures. Samples were thawed at room temperature and vortexed. […] Samples were then placed in a methanol/ dry ice bath for 5 min. […] Dry residues were reconstituted with 200 μL of reconstitution solution (mobile phase A). After vortexing, all tubes were centrifuged at 3000 rpm for 5 min at 4 °C, and 150 μL of the reconstituted samples were transferred into the deep round well microplates and sealed by aluminum foil at 165 °C. […] Mobile phase A was Milli-Q Type Water/methanol, ammonium acetate 2 mM and mobile phase B was acetonitrile. The monitored ion transitions were m/z 483.3 → 258.2; […] The validated rosuvastatin concentration calibration range was 20 to 25000 pg/mL. Urine rosuvastatin was measured using a validated HPLC-MS/MS assay, in compliance with Pfizer standard operating procedures. […] Mobile phase A was Milli-Q® type water/methanol, ammonium acetate 2 mM and mobile phase B was acetonitrile. The monitored ion transitions were m/z 483.3 → 258.2; […] The validated rosuvastatin concentration calibration range was 5 to 2000 ng/mL. […] Samples below the lower limit of quantitation were set to zero for the PK analysis. Actual sample collection times were used for the PK analysis. Natural log transformed area under the plasma concentration-time profile from time 0 extrapolated to infinity (AUCinf), maximum plasma concentration (Cmax), and apparent renal clearance (CLr) were analyzed using a mixed effect model with treatment as a fixed effect and participant as a random effect (SAS version 9.4; SAS Institute, Cary, NC, USA). […] Rosuvastatin alone was the reference treatment, while the rosuvastatin coadministered with ritlecitinib was the Test treatment.

[10] = system: OATP2B1; design: method as in PMID 27737931; settings: rosuvastatin coadministered with ronacaleret, an OATP2B1 inhibitor; cited from earlier work
[11] = design: method as in PMID 14693307; settings: cited from earlier work
[12] = Safety and tolerability in the clinical DDI study
Procedure: This was a Phase 1, 2-period fixed-sequence, multiple-dose, open-label study of the effect of ritlecitinib on the pharmacokinetics and renal clearance of a single, oral dose of rosuvastatin in healthy participants (Fig. 1). The safety and tolerability of rosuvastatin when coadministered with ritlecitinib was also evaluated.
In Period 1 on Day 1, following an overnight fast of at least 10 h, participants received a single oral administration of rosuvastatin 10 mg tablet. Period 1 was immediately followed by Period 2 with no washout. In Period 2 (coadministration), participants received oral ritlecitinib 200 mg once daily (QD) under non-fasting conditions for 7 days. On the morning of Day 8, a single dose of rosuvastatin 10 mg tablet was administered orally within approximately 5 min after administration of a ritlecitinib 200 mg dose under fasting conditions. On Days 9 and 10, participants continued to receive oral ritlecitinib 200 mg QD under non-fasting conditions.

[13] = rosuvastatin 10 mg + ritlecitinib 200 mg QD
[14] = with vs without ritlecitinib 200 mg QD
[15] = rosuvastatin 10 mg single dose (without ritlecitinib) or ritlecitinib 200 mg QD, 12 healthy participants

Molecule: CNS(=O)(=O)Cc1ccc2[nH]cc(CCN(C)C)c2c1 [sumatriptan]
increase in AUCinf ([1]; sumatriptan with ritlecitinib coadministration, due to OCT1 inhibition): 30% | decrease in Cmax ([1]; sumatriptan with ritlecitinib coadministration): 13% | exposure increase ([1]; sumatriptan, liver OCT1 inhibition by ritlecitinib and M2): up to 50%

Molecule: CCc1nc(N)nc(N)c1-c1ccc(Cl)cc1 [Pyrimethamine]
IC50 [4]: 16 µM | Cmax,u ([5]; inhibitor dose 10 mg): 40 nM | Cmax,u ([5]; inhibitor dose 25 mg): 110 nM | Cmax,u ([5]; inhibitor dose 75 mg): 370 nM | PDA AUC ratio Observed ([6]; inhibitor dose 10 mg): 0.7 | PDA AUC ratio Observed ([6]; inhibitor dose 25 mg): 0.6 | PDA AUC ratio Observed ([6]; inhibitor dose 75 mg): 0.6 | IC50 [7]: 224 µM

Molecule: Cc1ncc(CO)c(C(=O)O)c1O [PDA, pyridoxic acid]
AUC24 [8, 13]: 69.47 (33) | Cmax [8, 13]: 3.765 (28) | AUC24 ([8]; rosuvastatin 10 mg alone): 67.34 (30) | Cmax ([8]; rosuvastatin 10 mg alone): 3.664 (29) | AUC24 % Ratio (Test/Reference) of Adjusted Geometric Means (90% CI) [8, 14]: 103.16 (87.65, 121.42) % | Cmax % Ratio (Test/Reference) of Adjusted Geometric Means (90% CI) [8, 14]: 102.76 (87.58, 120.58) % | increase in plasma AUC ([6]; plasma PDA in the presence of probenecid): 3.1 fold

Now from value to molecule, other results behind:

AUC24 [2, 13]: 8729 (21) | Cmax [2, 13]: 418.8 (19) | AUC24 ([2]; rosuvastatin 10 mg alone): 8915 (21) | Cmax ([2]; rosuvastatin 10 mg alone): 427.1 (22) | AUC24 % Ratio (Test/Reference) of Adjusted Geometric Means (90% CI) [2, 14]: 97.91 (92.24, 103.94) % | Cmax % Ratio (Test/Reference) of Adjusted Geometric Means (90% CI) [2, 14]: 98.06 (93.13, 103.26) %
Molecule: coproporphyrin I [CP-I]
increase in exposure (AUC24) [3]: 4.0 fold

AUC(0-inf) [9]: 43.9 ng·h/mL | CL renal [9]: 218 mL/min | CL/F [9]: 228.0 (44) L/hr | Cmax [9]: 4.5 ng/mL | Tmax [9]: 4.01 h | Vd/F [9]: 6020 L | half-life [9]: 19.2 ± 7.02 h
Molecule: CC(C)c1nc(N(C)S(C)(=O)=O)nc(-c2ccc(F)cc2)c1/C=C/[C@@H](O)C[C@@H](O)CC(=O)O [Rosuvastatin, rosuvastatin]
decrease in AUCinf exposure [10]: ~50% | excreted in urine [11]: ≤ 10% | TEAEs of moderate severity ([12]; back pain, single dose of rosuvastatin 10 mg): 1 | number of treatment-emergent adverse events (TEAEs) [12, 15]: 4 | participants with TEAEs [12, 15]: 4 | TEAEs considered treatment-related by the investigator ([12]; rosuvastatin 10 mg single dose or ritlecitinib 200 mg QD): all of which were considered treatment-related
